Data published in patent publication US11104648B2, “Pyrazole derivative” (Zhejiang Research Institute of Chemical Industry Co., Ltd., priority 2018, dated 2021).
Like-named read-outs stand apart in the source and are kept apart here.

How the values were obtained:
Type in all cases: in vivo
[1] = test system: adult Tetranychus cinnabarinus; test: Activity assay of adult Tetranychus cinnabarinus (whole-plant spray on bean seedlings); settings: 48 h, read-out: adult mite-killing activity
Method: According to the solubility of the test compound, the crude drug was dissolved in N, N-dimethlfornamide, and then prepared into a test solution of the desired concentration with 1‰ Tween 80 aqueous solution. The content of N,N-dimethylformamide in the solution should not exceed 10%.
Two euphylla bean seedlings were taken, after inoculated with adult Tetranychus cinnabarinus and the base number was investigated, whole plants were sprayed with a hand-held sprayer. The experiment was repeated three times for each treatment, after treatment, placed in a standard observation room after treatment, to investigate the survival number of mites in 48 hand calculate the death rate.

[2] = test system: Eggs of Tetranychus Cinnabarinus; test: Activity assay of eggs of Tetranychus cinnabarinus (spray method, ovicidal); settings: Tetranychus cinnabarinus, read-out: ovicidal activity
Method: According to the solubility of the test compound, the crude drug was dissolved in N N-dimethylformamide, and then prepared into a test solution of the desired concentration with 1‰ Tween 80 aqueous solution. The content of N. N-dimethylformamide in the solution should not exceed 10%.
Spray method. The broad bean leaves with petioles were cut and inserted into a bottle with water. A certain number of female mites were placed, 24h later, adult mites were removed, and spray treatment was performed in 24 h. The experiment was repeated three times, and a blank control was set, and placed to an observation room (26±2° C., humidity 70%˜80%, 16h light per day) for culture. When the blank control group was incubated, the results were investigated. The non-incubated ones were used as death for investigation.

[3] = test system: Tetranychus cinnabarinus Nymphs; test: Activity assay of Tetranychus cinnabarinus nymphs (spray on broad bean leaves)
Method: According to the solubility of the test compound, the crude drug was dissolved in N, N-dimethylformamide, and then prepared into a test solution of the desired concentration with 1‰ Tween 80 aqueous solution. The content of N,N-dimethylformamide in the solution should not exceed 10%.
The broad bean leaves with petioles were cut and inserted into a small bottle with water. A certain number of brightly colored, active female adult mites were placed, 24h later, adult mites were removed, and leaves with insufficient eggs were removed. When eggs were hatched and grew into nymphs, spray treatment was performed. The experiment was repeated three times, and a blank control was set, and placed to an observation room (26±2° C., humidity 70%˜80%, 16h light per day) for culture. 48 h later, the results were investigated. The nymphs were gently touched during investigation, and if no response, they were regarded as deaths.

[4] = concentration 5 mg/L, spray, non-incubated eggs counted as dead
[5] = 48 h, concentration 2.5 mg/L, read-out: nymph-killing activity

Structure (SMILES)	pest or weed control at 2.5 µg/mL ([1]; concentration 2.5 mg/L) [%]	pest or weed control at 5 µg/mL [2, 4] [%]	pest or weed control at 2.5 µg/mL [3, 5] [%]	pest or weed control at 2.5 µg/mL [1] [%]	pest or weed control at 5 µg/mL [2] [%]	pest or weed control at 2.5 µg/mL ([3]; 48 h, read-out: nymph-killing activity) [%]	pest or weed control at 2.5 µg/mL ([3]; concentration 2.5 mg/L, 48 h, read-out: nymph-killing activity) [%]
CSCC(=O)OCO/C(=C(/C#N)c1ccc(C(C)(C)C)cc1)c1c(Cl)c(C)nn1C [Compound 85]	≥ 90	≥ 90	≥ 95				
Cc1nn(C)c(/C(OCOC(=O)C2CCCCC2)=C(\C#N)c2ccc(C(C)(C)C)cc2)c1Cl [Compound 86]	≥ 90	≥ 90	≥ 95				
Cc1nn(C)c(/C(OCOC(=O)CF)=C(\C#N)c2ccc(C(C)(C)C)cc2)c1Cl [Compound 87]				≥ 90	≥ 90	≥ 95	
Cc1nn(C)c(/C(OCOC(=O)C(F)(F)F)=C(\C#N)c2ccc(C(C)(C)C)cc2)c1Cl [Compound 88]	≥ 90	≥ 90	≥ 95				
Cc1nn(C)c(/C(OCOC(=O)c2ccccc2)=C(\C#N)c2ccc(C(C)(C)C)cc2)c1Cl [Compound 89]	≥ 90	≥ 90	≥ 95				
Cc1nn(C)c(/C(OCOC(=O)Cc2ccccc2)=C(\C#N)c2ccc(C(C)(C)C)cc2)c1Cl [Compound 90]	≥ 90	≥ 90					≥ 95
CCC(C)(C)C(=O)OCO/C(=C(/C#N)c1ccc(C(C)(C)C)cc1)c1c(Cl)c(C)nn1C [Compound 91]	≥ 90	≥ 90	≥ 95				
C=CC(=O)OCO/C(=C(/C#N)c1ccc(C(C)(C)C)cc1)c1c(Cl)c(C)nn1C [Compound 92]	≥ 90	≥ 90	≥ 95				
CC(=O)OC(C)O/C(=C(/C#N)c1ccc(C(C)(C)C)cc1)c1c(Cl)c(C)nn1C (stereo not drawn) [Compound 101]	≥ 90	≥ 90	≥ 95				
CCC(=O)OC(C)O/C(=C(/C#N)c1ccc(C(C)(C)C)cc1)c1c(Cl)c(C)nn1C (stereo not drawn) [Compound 102]	≥ 90	≥ 90	≥ 95				
CCCC(=O)OC(C)O/C(=C(/C#N)c1ccc(C(C)(C)C)cc1)c1c(Cl)c(C)nn1C (stereo not drawn) [Compound 103]	≥ 90	≥ 90	≥ 95				
Cc1nn(C)c(/C(OC(C)OC(=O)C(C)C)=C(\C#N)c2ccc(C(C)(C)C)cc2)c1Cl (stereo not drawn) [Compound 104]	≥ 90	≥ 90	≥ 95				
CCCCC(=O)OC(C)O/C(=C(/C#N)c1ccc(C(C)(C)C)cc1)c1c(Cl)c(C)nn1C (stereo not drawn) [Compound 106]	≥ 90	≥ 90	≥ 95				
Cc1nn(C)c(/C(OC(C)OC(=O)CC(C)C)=C(\C#N)c2ccc(C(C)(C)C)cc2)c1Cl (stereo not drawn) [Compound 107]	≥ 90	≥ 90	≥ 95				
COCC(=O)OC(C)O/C(=C(/C#N)c1ccc(C(C)(C)C)cc1)c1c(Cl)c(C)nn1C (stereo not drawn) [Compound 108]	≥ 90	≥ 90	≥ 95				
Cc1nn(C)c(/C(OC(C)OC(=O)C2CC2)=C(\C#N)c2ccc(C(C)(C)C)cc2)c1Cl (stereo not drawn) [Compound 109]	≥ 90	≥ 90	≥ 95				
CSCC(=O)OC(C)O/C(=C(/C#N)c1ccc(C(C)(C)C)cc1)c1c(Cl)c(C)nn1C (stereo not drawn) [Compound 110]	≥ 90	≥ 90	≥ 95				
Cc1nn(C)c(/C(OC(C)OC(=O)C2CCCCC2)=C(\C#N)c2ccc(C(C)(C)C)cc2)c1Cl (stereo not drawn) [Compound 111]	≥ 90	≥ 90	≥ 95				
